Here are results for two compounds from publication PMC5271370, “A High-Content Assay Enables the Automated Screening and Identification of Small Molecules with Specific ALDH1A1-Inhibitory Activity” (PLoS ONE, 2017).

Read-outs that look alike come from different tables or passages of the source.

Test [1] deals with HT-29 cells. Briefly: 1,536-well high-content imaging ALDEFLUOR assay, HT-29. Type of test: cell-based, human. The procedure: (§1) To miniaturize the assay into a 1536-well format amenable to qHTS, we chose MIA PaCa-2 and HT-29 because of their high levels of ALDH1A1(Fig 1A). Utilizing the 8-step protocol described by Ming et al. as a starting point, we developed a “semi-automated” protocol described in S1 Table. Briefly, we plated 1,000 cells in a volume of 5 μL/well into black-optical quality clear bottom 1,536-well plates, and allowed cells to attach overnight. Culture media was subsequently removed by inverting and centrifuging plates using a plate adaptor as previously described and replaced with 5 μL of a solution of either 500 or 100 nM BAAA substrate in ALDEFLUOR buffer. To identify cells based on nuclear staining, we also included 0.5 nM Hoechst 33342 in the above buffer. […] After incubating the plate for 30 minutes at 37°C, 5% CO2, 85% RH, the remaining substrate was removed by centrifugation as above and replaced with 3 μL of ALDEFLUOR buffer. Fluorescence was subsequently imaged using the IN Cell Analyzer 2200 high-content widefield fluorescence based imager and the resulting images were quantified using the IN Cell Investigator v1.6.2 analysis software (see Experimental Procedures for analysis details).
(§2) The ALDEFLUOR kit was purchased from […] Technologies (Vancouver, Canada; #01700). Cells (5 μL) were dispensed into black, optical quality (cyclic olefin copolymer) clear bottom, medium binding TC treated 1,536-well plates (Aurora Microplates, Whitefish MT) using a Multidrop Combi dispenser (ThermoFisher) and incubated overnight (37°C, 5% CO2, 85% RH). Media was subsequently removed by centrifuging plates upside down using a plate adaptor to collect media. A solution of BAAA substrate ([…] Technologies) and Hoechst 33342 (ThermoFisher, final concentrations of 500 nM and 0.5 nM, respectively) in ALDEFLUOR buffer ([…] Technologies #01700) was dispensed onto cells using a Multidrop Combi followed by immediate transfer (23 nL) of compound or control solutions using a Wako Pin-tool (final percentage of DMSO in the cell plates was 0.5%). Unless otherwise noted, all compounds were assayed as 16-point dilutions spanning a final concentration range of 1.4 nM to […]. […] Cells were incubated for 30 minutes or the indicated amount of time at 37°C, 5% CO2, 85% RH to allow the conversion of BAAA into BAA. Supernatant was subsequently removed by centrifugation as described above, then ALDEFLUOR buffer (3 μl) was dispensed by Multidrop Combi before imaging on an IN Cell 2200 (GE Healthcare).
(§3) The above assay was modified for an online robotic screening system. After cell plating and overnight incubation, 4 μL of media were removed using a 64-tip metal aspirator head on a Wako aspirator station, leaving 1 μL remaining in the well, followed by a 4 μL dispense of BAAA and Hoechst 33342 in ALDEFLUOR buffer, for a final concentration of 500 nM and 0.5 nM, respectively. Immediately following the dispense, 23 nL of compound or control solutions were transferred using a Wako Pin-tool. Cells were incubated for 30 minutes at 37°C, 5% CO2, 85% RH, followed by a 4 μL media removal using the Wako aspirator, and a subsequent 3 μL addition of ALDEFLUOR buffer. Plates were then immediately read on the IN Cell 2200 as described below.
(§4) For images captured on the IN Cell 2200 widefield automated microscope, a 10x 0.45 NA Plan Apo objective lens was used to capture the entire well of the 1,536-well plate using standard DAPI (390/18x, 432/48m) and FITC (475/28x, 525/48m) filter sets at 50 msec and 100 msec exposures, respectively. Images were subsequently analyzed using IN Cell Investigator v1.6.2 analysis software’s canned Multi-Target Analysis algorithm (GE Healthcare). Hoechst stained nuclei were identified using top hat segmentation with a minimum area of 75 μm^2 and sensitivity of 93. […]

The target in test [2] is T1, Human ALDH1A1 (Homo sapiens, UniProt P00352).
T1 construct: made in house
T1 sequence (P00352 1-501): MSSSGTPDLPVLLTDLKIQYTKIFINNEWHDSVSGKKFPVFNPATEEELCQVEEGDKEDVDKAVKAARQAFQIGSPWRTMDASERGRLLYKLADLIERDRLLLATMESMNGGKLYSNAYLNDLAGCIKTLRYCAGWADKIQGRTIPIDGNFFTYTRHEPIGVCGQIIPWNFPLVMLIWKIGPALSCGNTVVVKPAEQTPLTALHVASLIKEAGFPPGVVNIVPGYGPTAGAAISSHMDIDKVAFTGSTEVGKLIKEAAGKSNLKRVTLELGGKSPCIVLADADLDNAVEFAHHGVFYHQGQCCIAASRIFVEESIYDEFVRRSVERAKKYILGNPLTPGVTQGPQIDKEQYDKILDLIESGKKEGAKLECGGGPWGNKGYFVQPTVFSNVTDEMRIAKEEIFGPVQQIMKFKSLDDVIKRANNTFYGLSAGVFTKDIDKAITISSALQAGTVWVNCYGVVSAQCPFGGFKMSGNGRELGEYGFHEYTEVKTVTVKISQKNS
Description: 1,536-well enzymatic assay (NADH fluorescence), ALDH1A1. The settings on record: validation set; 20 nM enzyme, NAD+ and propionaldehyde; read-out: Biochemical IC50 ALDH1A1. Type of test: biochemical. From the text:
To validate our optimized assay, we assembled a set of 20 previously reported ALDH inhibitors, with varying degrees of target specificity (Table 1 and S4 Fig). […] Briefly, the assay measures the dehydrogenase activity of recombinant human ALDH1A1, ALDH1A2, ALDH1A3, ALDH2 or ALDH3A1 using NAD(P)^+ and either propionaldehyde or benzaldehyde as substrates. An orthogonal resorufin-based assay format was also run with isolated ALDH1A1 to rule out potential false positives due to intrinsic compound fluorescence.
Human ALDH1A1 and ALDH3A1 were expressed and purified as described elsewhere. Human ALDH2 was purchased from Abcam (ab87415). Human ALDH1A2 and ALDH1A3 were purchased from MyBioSource (MBS1005929; San Diego, CA) and ThermoFisher (11636H07E50), respectively. The inhibitory activity of compounds against ALDHs was measured according to protocols described previously. Briefly, 3 μL of enzyme (final concentrations of 20 nM for ALDH1A1, 50 nM for ALDH1A2, 50 nM for ALDH1A3, 75 nM for ALDH2 and 5 nM for ALDH3A1) in assay buffer (100 mM HEPES pH 7.5 with 0.01% Tween 20) were dispensed into a 1,536-well solid-bottom black plate (Greiner Bio One, Monroe, NC). […] Samples were incubated (room temperature, protected from light) for 15 minutes followed by a 1 μL substrate addition of NAD^+ and Propionaldehyde (final concentrations of 1 mM and 80 μM, respectively) for ALDH1A1, 1A2, 1A3, and ALDH2 or NADP^+ and benzaldehyde (final concentrations of 1 mM and 200 μM, respectively) for ALDH3A1. Plates were centrifuged at 1,000 rpm for 15 seconds, then read in kinetic mode on a ViewLux High-throughput CCD imager (PerkinElmer, Waltham, MA) equipped with standard UV fluorescence optics (340 nm excitation, 450 nm emission) for 5 (ALDH1A1, ALDH1A2, ALDH2, ALDH3A1) or 30 (ALDH1A3) minutes. The change in fluorescence intensity over the 5- or 30-minute reaction period was normalized against no-inhibitor and no-enzyme controls and the resulting percent inhibition data were fitted to a 4-parameter Hill equation. Bay-11 7085 was used as intraplate control. To account for artifacts due to intrinsic compound fluorescence in the above spectrum, compounds were also tested in an orthogonal resorufin assay format with optics of excitation 525 nm/emission 598 nm as described before. The same parameters as the NADH assay were used for the resorufin assay, with the addition of (final) 133 μg/mL diaphorase and 37 μM resazurin to the assay solution. Same controls were used in both formats.

In test [3] the test system is MIA PaCa-2 cells. Briefly: 1,536-well high-content imaging ALDEFLUOR assay, MIA PaCa-2. In kind it is cell-based, human. The settings on record: semi-automated; active = high quality concentration response curve and >50% efficacy; up to 45.8 μM. The protocol: as §1, §2, §3, §4
Test [4] relates to LN-229 cells. Description: 1,536-well high-content imaging ALDEFLUOR assay, LN-229. Type of test: cell-based, human. As to conditions: fully automated assay, Fig 5. The procedure: We next sought to test if the fully automated high-content assay could be used to detect ALDH1A1-specific inhibitors.
as §2
The above assay was modified for an online robotic screening system. After cell plating and overnight incubation, 4 μL of media were removed using a 64-tip metal aspirator head on a Wako aspirator station, leaving 1 μL remaining in the well, followed by a 4 μL dispense of BAAA and Hoechst 33342 in ALDEFLUOR buffer, for a final concentration of 500 nM and 0.5 nM, respectively. Immediately following the dispense, 23 nL of compound or control solutions were transferred using a Wako Pin-tool. […] Plates were then immediately read on the IN Cell 2200 as described below.
For images captured on the IN Cell 2200 widefield automated microscope, a 10x 0.45 NA Plan Apo objective lens was used to capture the entire well of the 1,536-well plate using standard DAPI (390/18x, 432/48m) and FITC (475/28x, 525/48m) filter sets at 50 msec and 100 msec exposures, respectively. Images were subsequently analyzed using IN Cell Investigator v1.6.2 analysis software’s canned Multi-Target Analysis algorithm (GE Healthcare). […]
The same controls were also used for the calculation of the Z’ factor for each assay. The Z’ factor, a measure of assay quality control, was determined as previously described. […] All concentration–response curves were fitted as before and IC50 were calculated with the GraphPad Prism software.

Test [5] has as its system ALDH1A1. As to conditions: reported ALDH target 1A1; read-out: Reported Biochemical IC50, ALDH1A1; cited from earlier work.

Take `CCSC(=O)N1CCCCCC1` [Molinate]: in test [1] (semi-automated, active = high quality concentration response curve and >50% efficacy, up to 45.8 μM), the “Activity in ALDEFLUOR assay, HT-29” value is “tested negative”. Further, the half-maximal inhibitory concentration (IC50) in test [2] is 27 µM. Besides, in test [3], the “Activity in ALDEFLUOR assay, MIA PaCa-2” value is “tested negative”.
For the compound `CC(C)CCn1c(CN2CCN(C(=O)C3CC3)CC2)nc2c1c(=O)n(C)c(=O)n2C` [NCT-501], the IC50 in test [1] (fully automated assay, n = 4, read-out: ALDEFLUOR IC50 HT-29 (Fig 5)) was 3.3 µM; in test [1] (validation set, semi-automated protocol, 16-point dilution, 1,000 cells/well, 500 nM BAAA, 30 min, read-out: Aldefluor IC50 HT-29), 4.33 µM; in test [5], […]. In addition, in test [4], the “Inhibition of BAAA turnover in LN-229 (ALDH1A1-negative cells)” value was “inhibited BAAA turnover only in ALDH1A1-expressing cells”.
